Data taken from ChEMBL document CHEMBL1156956, “Triazines incorporating (R)-3-methylmorpholine are potent inhibitors of the mammalian target of rapamycin (mTOR) with selectivity over PI3Kalpha” (Bioorg Med Chem Lett, 2010).

Target: Serine/threonine-protein kinase mTOR (Rattus norvegicus, UniProt P42346)
Experiment: Inhibition of rat brain mTOR assessed as p70S6k-GST protein phosphorylation after 30 mins by ELISA
Settings: not given

Row | SMILES | IC50 [nM]
1 | C[C@@H]1COCCN1c1nc(-c2ccc(NC(=O)Nc3ccc(C(=O)N4CCN(C)CC4)cc3)cc2)nc(C2CCOCC2)n1 | 1
2 | C[C@@H]1COCCN1c1nc(-c2ccc(NC(=O)Nc3ccc(OCCN(C)C)cc3)cc2)nc(N2CCOC[C@H]2C)n1 | 0.7
3 | C[C@@H]1COCCN1c1nc(-c2ccc(NC(=O)Nc3ccc(C(=O)N4CCC(N(C)C)CC4)cc3)cc2)nc(N2CCOC[C@H]2C)n1 | 0.5
4 | C[C@@H]1COCCN1c1nc(-c2ccc(NC(=O)Nc3ccc(N4CCC(N(C)C)CC4)cc3)cc2)nc(N2CCOC[C@H]2C)n1 | 1.9
5 | C[C@@H]1COCCN1c1nc(-c2ccc(NC(=O)Nc3ccc(CN(C)C)cc3)cc2)nc(N2CCOC[C@H]2C)n1 | 2
6 | C[C@@H]1COCCN1c1nc(-c2ccc(NC(=O)Nc3ccc(C(=O)N(C)C)cc3)cc2)nc(N2CCOC[C@H]2C)n1 | 0.5
7 | C[C@@H]1COCCN1c1nc(-c2ccc(NC(=O)Nc3cccnc3)cc2)nc(C2CCOCC2)n1 | 0.6
8 | C[C@@H]1COCCN1c1nc(-c2ccc(NC(=O)Nc3ccc(N4CCN(C)CC4)cc3)cc2)nc(N2CCOC[C@H]2C)n1 | 1.1
9 | C[C@@H]1COCCN1c1nc(-c2ccc(NC(=O)Nc3ccc(C(=O)N4CCN(C)CC4)cc3)cc2)nc(N2CCOC[C@H]2C)n1 | 1.7
10 | C[C@@H]1COCCN1c1nc(-c2ccc(NC(=O)Nc3ccc(N4CCNCC4)cc3)cc2)nc(C2CCOCC2)n1 | 0.8
11 | C[C@@H]1COCCN1c1nc(-c2ccc(NC(=O)Nc3ccncc3)cc2)nc(N2CCOC[C@H]2C)n1 | 0.2
12 | C[C@@H]1COCCN1c1nc(-c2ccc(NC(=O)Nc3ccc(N4CCC(N(C)C)CC4)cc3)cc2)nc(C2CCOCC2)n1 | 1.7
13 | CC(C)N1CCN(C(=O)c2ccc(NC(=O)Nc3ccc(-c4nc(C5CCOCC5)nc(N5CCOC[C@H]5C)n4)cc3)cc2)CC1 | 0.7
14 | C[C@@H]1COCCN1c1nc(-c2ccc(NC(=O)Nc3cccnc3)cc2)nc(N2CCOC[C@H]2C)n1 | 0.2
15 | C[C@@H]1COCCN1c1nc(-c2ccc(NC(=O)Nc3ccc(N4CCN(C)CC4)cc3)cc2)nc(C2CCOCC2)n1 | 0.7
16 | C[C@@H]1COCCN1c1nc(-c2ccc(NC(=O)Nc3cccnc3)cc2)nc(N2C[C@@H]3C[C@H]2CO3)n1 | 3.6
17 | C[C@@H]1COCCN1c1nc(-c2ccc(NC(=O)Nc3ccc(N4CCN(C)CC4)nc3)cc2)nc(N2CCOC[C@H]2C)n1 | 1.7

Target: Phosphatidylinositol 4,5-bisphosphate 3-kinase catalytic subunit alpha isoform (Homo sapiens, UniProt P42336)
Experiment: Inhibition of PI3Kalpha assessed as PIP3 accumulation after 24 mins by HTRF assay
Settings: not given

Chain of Phosphatidylinositol 4,5-bisphosphate 3-kinase catalytic subunit alpha isoform (P42336 whole entry, canonical isoform): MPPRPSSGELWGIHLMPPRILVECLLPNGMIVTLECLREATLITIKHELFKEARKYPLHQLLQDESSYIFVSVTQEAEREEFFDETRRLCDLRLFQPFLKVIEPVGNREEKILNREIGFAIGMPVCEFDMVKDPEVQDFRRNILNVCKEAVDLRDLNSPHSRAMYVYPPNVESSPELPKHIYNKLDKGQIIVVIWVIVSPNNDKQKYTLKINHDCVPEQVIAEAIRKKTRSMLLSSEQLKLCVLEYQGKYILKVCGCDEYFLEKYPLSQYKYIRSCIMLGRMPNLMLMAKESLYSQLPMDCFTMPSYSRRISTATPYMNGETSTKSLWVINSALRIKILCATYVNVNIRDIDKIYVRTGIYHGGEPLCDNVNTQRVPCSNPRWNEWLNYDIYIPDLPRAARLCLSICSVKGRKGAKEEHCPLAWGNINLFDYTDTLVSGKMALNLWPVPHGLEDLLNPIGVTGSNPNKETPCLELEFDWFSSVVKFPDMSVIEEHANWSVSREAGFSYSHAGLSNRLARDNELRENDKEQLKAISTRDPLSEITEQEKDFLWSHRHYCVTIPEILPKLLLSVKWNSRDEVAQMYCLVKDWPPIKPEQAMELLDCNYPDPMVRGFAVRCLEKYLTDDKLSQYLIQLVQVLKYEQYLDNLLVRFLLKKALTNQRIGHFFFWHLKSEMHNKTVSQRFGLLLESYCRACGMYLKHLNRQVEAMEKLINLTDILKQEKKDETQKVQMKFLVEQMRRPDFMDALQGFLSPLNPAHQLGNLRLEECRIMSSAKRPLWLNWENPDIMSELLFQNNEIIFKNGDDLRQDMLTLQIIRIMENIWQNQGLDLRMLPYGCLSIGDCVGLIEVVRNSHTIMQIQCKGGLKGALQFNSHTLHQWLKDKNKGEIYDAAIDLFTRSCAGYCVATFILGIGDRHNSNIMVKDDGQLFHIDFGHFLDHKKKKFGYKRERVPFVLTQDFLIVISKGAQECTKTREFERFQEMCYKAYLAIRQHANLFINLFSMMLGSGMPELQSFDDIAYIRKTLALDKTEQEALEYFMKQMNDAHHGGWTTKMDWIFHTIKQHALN

Row | SMILES | IC50 [nM]
18 | C[C@@H]1COCCN1c1nc(-c2ccc(NC(=O)Nc3ccc(OCCN(C)C)cc3)cc2)nc(N2CCOC[C@H]2C)n1 | 314
19 | C[C@@H]1COCCN1c1nc(-c2ccc(NC(=O)Nc3ccc(C(=O)N4CCC(N(C)C)CC4)cc3)cc2)nc(N2CCOC[C@H]2C)n1 | 55

System: not listed separately
Experiment: Growth inhibition of human MDA468 cells after 3 days by MTS assay
Assay type: functional, cell-based
Settings: MDA-MB-468, 72 h

Row | SMILES | IC50 [nM]
20 | C[C@@H]1COCCN1c1nc(-c2ccc(NC(=O)Nc3ccc(C(=O)N4CCN(C)CC4)cc3)cc2)nc(C2CCOCC2)n1 | < 0.8
21 | C[C@@H]1COCCN1c1nc(-c2ccc(NC(=O)Nc3ccc(OCCN(C)C)cc3)cc2)nc(N2CCOC[C@H]2C)n1 | 45
22 | C[C@@H]1COCCN1c1nc(-c2ccc(NC(=O)Nc3ccc(C(=O)N4CCC(N(C)C)CC4)cc3)cc2)nc(N2CCOC[C@H]2C)n1 | 5
23 | C[C@@H]1COCCN1c1nc(-c2ccc(NC(=O)Nc3ccc(N4CCC(N(C)C)CC4)cc3)cc2)nc(N2CCOC[C@H]2C)n1 | 80
24 | C[C@@H]1COCCN1c1nc(-c2ccc(NC(=O)Nc3ccc(CN(C)C)cc3)cc2)nc(N2CCOC[C@H]2C)n1 | 50
25 | C[C@@H]1COCCN1c1nc(-c2ccc(NC(=O)Nc3ccc(C(=O)N(C)C)cc3)cc2)nc(N2CCOC[C@H]2C)n1 | < 0.8
26 | C[C@@H]1COCCN1c1nc(-c2ccc(NC(=O)Nc3cccnc3)cc2)nc(C2CCOCC2)n1 | 80
27 | C[C@@H]1COCCN1c1nc(-c2ccc(NC(=O)Nc3ccc(N4CCN(C)CC4)cc3)cc2)nc(N2CCOC[C@H]2C)n1 | 10
28 | C[C@@H]1COCCN1c1nc(-c2ccc(NC(=O)Nc3ccc(C(=O)N4CCN(C)CC4)cc3)cc2)nc(N2CCOC[C@H]2C)n1 | < 0.8
29 | C[C@@H]1COCCN1c1nc(-c2ccc(NC(=O)Nc3ccc(N4CCNCC4)cc3)cc2)nc(C2CCOCC2)n1 | 9
30 | C[C@@H]1COCCN1c1nc(-c2ccc(NC(=O)Nc3ccncc3)cc2)nc(N2CCOC[C@H]2C)n1 | 40
31 | C[C@@H]1COCCN1c1nc(-c2ccc(NC(=O)Nc3ccc(N4CCC(N(C)C)CC4)cc3)cc2)nc(C2CCOCC2)n1 | 38
32 | CC(C)N1CCN(C(=O)c2ccc(NC(=O)Nc3ccc(-c4nc(C5CCOCC5)nc(N5CCOC[C@H]5C)n4)cc3)cc2)CC1 | < 0.8
33 | C[C@@H]1COCCN1c1nc(-c2ccc(NC(=O)Nc3ccc(N4CCN(C)CC4)nc3)cc2)nc(C2CCOCC2)n1 | 52
34 | C[C@@H]1COCCN1c1nc(-c2ccc(NC(=O)Nc3cccnc3)cc2)nc(N2CCOC[C@H]2C)n1 | 100
35 | C[C@@H]1COCCN1c1nc(-c2ccc(NC(=O)Nc3ccc(N4CCN(C)CC4)cc3)cc2)nc(C2CCOCC2)n1 | 6
36 | C[C@@H]1COCCN1c1nc(-c2ccc(NC(=O)Nc3cccnc3)cc2)nc(N2C[C@@H]3C[C@H]2CO3)n1 | 300
37 | C[C@@H]1COCCN1c1nc(-c2ccc(NC(=O)Nc3ccc(N4CCN(C)CC4)nc3)cc2)nc(N2CCOC[C@H]2C)n1 | 40

System: LNCaP
Experiment: Growth inhibition of human LNCAP cells after 3 days by MTS assay
Assay type: functional, cell-based
Settings: 72 h

Row | SMILES | IC50 [nM]
38 | C[C@@H]1COCCN1c1nc(-c2ccc(NC(=O)Nc3ccc(C(=O)N4CCN(C)CC4)cc3)cc2)nc(C2CCOCC2)n1 | < 0.8
39 | C[C@@H]1COCCN1c1nc(-c2ccc(NC(=O)Nc3ccc(OCCN(C)C)cc3)cc2)nc(N2CCOC[C@H]2C)n1 | 8
40 | C[C@@H]1COCCN1c1nc(-c2ccc(NC(=O)Nc3ccc(CN(C)C)cc3)cc2)nc(N2CCOC[C@H]2C)n1 | 21
41 | C[C@@H]1COCCN1c1nc(-c2ccc(NC(=O)Nc3ccc(C(=O)N(C)C)cc3)cc2)nc(N2CCOC[C@H]2C)n1 | < 0.8
42 | C[C@@H]1COCCN1c1nc(-c2ccc(NC(=O)Nc3ccc(N4CCN(C)CC4)cc3)cc2)nc(N2CCOC[C@H]2C)n1 | 3
43 | C[C@@H]1COCCN1c1nc(-c2ccc(NC(=O)Nc3ccc(C(=O)N4CCN(C)CC4)cc3)cc2)nc(N2CCOC[C@H]2C)n1 | < 0.8
44 | C[C@@H]1COCCN1c1nc(-c2ccc(NC(=O)Nc3ccc(N4CCNCC4)cc3)cc2)nc(C2CCOCC2)n1 | 2
45 | C[C@@H]1COCCN1c1nc(-c2ccc(NC(=O)Nc3ccc(N4CCC(N(C)C)CC4)cc3)cc2)nc(C2CCOCC2)n1 | 16
46 | CC(C)N1CCN(C(=O)c2ccc(NC(=O)Nc3ccc(-c4nc(C5CCOCC5)nc(N5CCOC[C@H]5C)n4)cc3)cc2)CC1 | < 0.8
47 | C[C@@H]1COCCN1c1nc(-c2ccc(NC(=O)Nc3cccnc3)cc2)nc(N2CCOC[C@H]2C)n1 | 12
48 | C[C@@H]1COCCN1c1nc(-c2ccc(NC(=O)Nc3ccc(N4CCN(C)CC4)cc3)cc2)nc(C2CCOCC2)n1 | 1
49 | C[C@@H]1COCCN1c1nc(-c2ccc(NC(=O)Nc3cccnc3)cc2)nc(N2C[C@@H]3C[C@H]2CO3)n1 | 250
50 | C[C@@H]1COCCN1c1nc(-c2ccc(NC(=O)Nc3ccc(N4CCN(C)CC4)nc3)cc2)nc(N2CCOC[C@H]2C)n1 | 12
